ChEMBL document CHEMBL1143483, “A new antitumor compound from the plant Oryctanthus sp. as a VEGF receptor binding inhibitor” (Bioorg Med Chem Lett, 2005)

Target: Vascular endothelial growth factor receptor 2 (Homo sapiens, UniProt P35968)
Test: Inhibitory concentration against human Vascular endothelial growth factor receptor 2

Vascular endothelial growth factor receptor 2, sequence (P35968 whole entry): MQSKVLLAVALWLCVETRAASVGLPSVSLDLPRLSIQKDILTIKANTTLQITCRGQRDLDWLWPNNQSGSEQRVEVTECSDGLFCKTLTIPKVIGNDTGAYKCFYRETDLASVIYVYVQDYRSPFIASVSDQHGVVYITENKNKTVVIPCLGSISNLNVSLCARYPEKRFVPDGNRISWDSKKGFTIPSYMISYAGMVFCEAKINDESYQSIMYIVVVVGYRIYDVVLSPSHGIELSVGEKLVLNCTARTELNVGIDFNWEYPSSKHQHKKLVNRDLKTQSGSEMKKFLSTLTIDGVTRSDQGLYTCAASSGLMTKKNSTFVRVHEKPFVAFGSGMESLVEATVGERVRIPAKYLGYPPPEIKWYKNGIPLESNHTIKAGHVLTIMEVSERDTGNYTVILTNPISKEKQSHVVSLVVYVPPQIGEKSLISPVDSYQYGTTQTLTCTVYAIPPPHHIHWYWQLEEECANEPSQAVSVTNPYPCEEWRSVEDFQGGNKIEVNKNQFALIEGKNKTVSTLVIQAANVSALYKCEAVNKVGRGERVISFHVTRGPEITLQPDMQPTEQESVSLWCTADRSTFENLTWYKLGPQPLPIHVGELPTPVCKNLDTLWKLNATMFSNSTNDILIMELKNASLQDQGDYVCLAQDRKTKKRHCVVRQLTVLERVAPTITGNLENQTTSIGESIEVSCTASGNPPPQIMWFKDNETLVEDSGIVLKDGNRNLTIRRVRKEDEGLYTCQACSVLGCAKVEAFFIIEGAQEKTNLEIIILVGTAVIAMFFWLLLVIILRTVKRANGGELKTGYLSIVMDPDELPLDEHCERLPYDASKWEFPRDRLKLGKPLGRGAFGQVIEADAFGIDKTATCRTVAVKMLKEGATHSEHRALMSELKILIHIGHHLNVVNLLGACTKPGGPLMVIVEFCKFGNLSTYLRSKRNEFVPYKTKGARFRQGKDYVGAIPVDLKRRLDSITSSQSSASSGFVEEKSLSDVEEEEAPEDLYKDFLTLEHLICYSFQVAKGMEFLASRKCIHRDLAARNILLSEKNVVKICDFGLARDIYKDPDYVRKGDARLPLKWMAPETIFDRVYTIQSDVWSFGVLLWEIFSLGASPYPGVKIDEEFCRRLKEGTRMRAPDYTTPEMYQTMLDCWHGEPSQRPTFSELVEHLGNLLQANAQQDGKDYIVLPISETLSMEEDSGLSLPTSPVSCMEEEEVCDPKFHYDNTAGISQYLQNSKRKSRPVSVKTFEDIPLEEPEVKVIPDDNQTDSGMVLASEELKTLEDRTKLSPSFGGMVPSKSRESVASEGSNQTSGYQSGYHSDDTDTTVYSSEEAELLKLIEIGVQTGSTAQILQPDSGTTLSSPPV

With `C/C(=C\C=C\CC(C)C(CC(=O)O)O[C@H]1O[C@@H](CO)[C@H](O)[C@H](O)[C@@H]1O)C(=O)O` (stereo partly specified) the IC50 was 5 µM.
